Source: ChEMBL document CHEMBL3875150, “Biological evaluation of some new N-(2,6-dimethoxypyrimidinyl) thioureido benzenesulfonamide derivatives as potential antimicrobial and anticancer agents” (Eur J Med Chem, 2016)
Values after ≈ are worked out from the molar mass of the structure shown.

Key:
Escherichia coli [1] = experiment: Antibacterial activity against Escherichia coli RCMB 010052 assessed as diameter of inhibition zone at 1 mg/mL after 24 to 48 hrs by agar well diffusion method; type: functional; settings: read-out: DIZ
MCF7 [2] = experiment: Potency index, ratio of 5-fluorouracil IC50 to test compound IC50 for human MCF7 cells; type: functional
Aspergillus fumigatus [3] = experiment: Antifungal activity against Aspergillus fumigatus RCMB 002568 assessed as diameter of inhibition zone at 1 mg/mL after 48 hrs by agar well diffusion method; type: functional; settings: RCMB 002568, 48 h, read-out: DIZ
Candida albicans [4] = experiment: Antifungal activity against Candida albicans RCMB 005036 assessed as diameter of inhibition zone at 1 mg/mL after 24 to 48 hrs by agar well diffusion method; type: functional; settings: read-out: DIZ
Pseudomonas aeruginosa [5] = experiment: Antibacterial activity against Pseudomonas aeruginosa RCMB 010043 after 24 to 48 hrs by agar well diffusion method; type: functional
Bacillus subtilis [6] = experiment: Antibacterial activity against Bacillus subtilis RCMB 010067 assessed as diameter of inhibition zone at 1 mg/mL after 24 to 48 hrs by agar well diffusion method; type: functional; settings: read-out: DIZ
Aspergillus fumigatus [7] = experiment: Antifungal activity against Aspergillus fumigatus RCMB 002568 after 24 to 48 hrs by agar well diffusion method; type: functional
Candida albicans [8] = experiment: Antifungal activity against Candida albicans RCMB 005036 after 24 to 48 hrs by agar well diffusion method; type: functional
Pseudomonas aeruginosa [9] = experiment: Antibacterial activity against Pseudomonas aeruginosa RCMB 010043 assessed as diameter of inhibition zone at 1 mg/mL after 24 to 48 hrs by agar well diffusion method; type: functional; settings: read-out: DIZ
Streptococcus pneumoniae [10] = experiment: Antibacterial activity against Streptococcus pneumoniae RCMB 010010 assessed as diameter of inhibition zone at 1 mg/mL after 24 to 48 hrs by agar well diffusion method; type: functional; settings: read-out: DIZ
Streptococcus pneumoniae [11] = experiment: Antibacterial activity against Streptococcus pneumoniae RCMB 010010 after 24 to 48 hrs by agar well diffusion method; type: functional
Escherichia coli [12] = experiment: Antibacterial activity against Escherichia coli RCMB 010052 after 24 to 48 hrs by agar well diffusion method; type: functional
Bacillus subtilis [13] = experiment: Antibacterial activity against Bacillus subtilis RCMB 010067 after 24 to 48 hrs by agar well diffusion method; type: functional
[14] = (§1) Cytotoxicity against human MCF7 cells assessed as decrease in cell viability after 24 hrs by MTT assay; type: functional, cell-based; settings: MCF7, 24 h
MCF7 [15] = experiment: as §1; type: functional, cell-based

MIC (Pseudomonas aeruginosa [5]): 500 µg/mL (≈ 921 µM)
MIC (Aspergillus fumigatus [7]): 125 µg/mL (≈ 230 µM)
MIC (Candida albicans [8]): 125 µg/mL (≈ 230 µM)
MIC (Streptococcus pneumoniae [11]): 15.6 µg/mL (≈ 28.8 µM)
MIC (Escherichia coli [12]): 62.5 µg/mL (≈ 115 µM)
MIC (Bacillus subtilis [13]): 7.81 µg/mL (≈ 14.4 µM)
Compound: COc1cc(NS(=O)(=O)c2ccc(NC(=S)NC3CCN(Cc4ccccc4)CC3)cc2)nc(OC)n1
zone of inhibition at 1000 µg/mL (Escherichia coli [1]): 16.3 mm
Ratio IC50 (MCF7 [2]): 3
zone of inhibition at 1000 µg/mL (Aspergillus fumigatus [3]): 14.2 mm
zone of inhibition at 1000 µg/mL (Candida albicans [4]): 12.7 mm
zone of inhibition at 1000 µg/mL (Bacillus subtilis [6]): 18.4 mm
zone of inhibition at 1000 µg/mL (Pseudomonas aeruginosa [9]): 8.2 mm
zone of inhibition at 1000 µg/mL (Streptococcus pneumoniae [10]): 17.3 mm
IC50 [14]: 1.72 µg/mL (≈ 3.17 µM)
Activity (MCF7 [15]): Dose-dependent effect
